Structures are written as SMILES. *1 amine or outer side, *2 acyl side, *3 side chain or, on linkers, in order; H or OH if unused. Where a SMILES comes first, the peptide text is derived from it. [ ]: non-standard residue; d: D form. The star is where a group is joined. X1 = CC(C)(C)C(=O)CN1C(=O)[C@H](N*)CN(C2CCCCC2)c2ccccc21; pGlu = O=C1CC[C@@H](C(=O)O)N1; PEG3 = NCCOCCOCCOCCC(=O)O; 3Abz = Nc1cccc(C(=O)O)c1; X2 = NCCNCC(CNCCN)C(=O)*; CO = O=C([*:1])[*:2]

Broadly, the IC50 is the midpoint of a concentration-inhibition curve.

For assay [1], the target named is T1, human CCK2R (Homo sapiens, UniProt P32239).
T1 construct: host or cells: HEK293 clone #21 (HEK293-hCCK2R/YC3.60), stably co-expressing the Ca2+ biosensor YC3.60
T1 sequence (P32239 1-447): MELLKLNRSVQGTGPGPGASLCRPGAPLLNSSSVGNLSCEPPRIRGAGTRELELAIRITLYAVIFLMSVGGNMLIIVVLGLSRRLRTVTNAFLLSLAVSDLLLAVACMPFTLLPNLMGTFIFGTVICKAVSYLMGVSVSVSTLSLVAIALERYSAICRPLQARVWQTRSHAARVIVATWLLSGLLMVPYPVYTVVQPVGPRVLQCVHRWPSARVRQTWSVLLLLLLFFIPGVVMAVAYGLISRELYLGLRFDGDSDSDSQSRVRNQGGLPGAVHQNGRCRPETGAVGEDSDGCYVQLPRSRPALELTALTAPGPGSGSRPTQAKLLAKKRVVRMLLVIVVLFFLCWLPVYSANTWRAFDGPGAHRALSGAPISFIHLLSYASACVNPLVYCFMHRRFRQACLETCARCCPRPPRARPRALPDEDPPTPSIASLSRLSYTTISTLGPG
Further details: method as in PMID 32568549. The conditions noted are these: cited from earlier work.

Assay [2] has as its target T2, human CCK2i4svR splice variant (Homo sapiens, UniProt P32239).
T2 construct: expressed in transfected cells; membrane homogenates
T2 sequence (P32239 1-516 isoform P32239-2): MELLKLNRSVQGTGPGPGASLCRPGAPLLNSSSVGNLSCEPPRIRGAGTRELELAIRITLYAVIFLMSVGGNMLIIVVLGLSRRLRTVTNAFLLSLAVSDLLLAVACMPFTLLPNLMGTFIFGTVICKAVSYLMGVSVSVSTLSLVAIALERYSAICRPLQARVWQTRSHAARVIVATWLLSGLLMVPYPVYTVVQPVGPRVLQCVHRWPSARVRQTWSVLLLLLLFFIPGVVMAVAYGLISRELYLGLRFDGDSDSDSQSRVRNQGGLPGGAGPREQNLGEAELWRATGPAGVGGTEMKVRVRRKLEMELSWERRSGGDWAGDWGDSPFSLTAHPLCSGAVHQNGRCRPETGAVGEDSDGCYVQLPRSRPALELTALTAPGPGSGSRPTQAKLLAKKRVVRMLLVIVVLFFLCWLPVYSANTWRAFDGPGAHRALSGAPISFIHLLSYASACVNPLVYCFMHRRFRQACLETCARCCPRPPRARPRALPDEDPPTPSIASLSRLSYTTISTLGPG
Kind of assay: Competition binding against [125I][I-Tyr12,Leu15]gastrin-17 in HEK293-CCK2i4svR cell membranes. The settings on record: vs [125I][I-Tyr12,Leu15]gastrin-17, HEK293-CCK2i4svR cell membranes, 1 h 22 °C; mean ± SD. The method, then: Competition binding assays for the metal-free GAS1/2/3 and the corresponding metal-tagged [^natGa]Ga/[^natIn]In/[^natLu]Lu-GAS1/3 and [^natGa]Ga/[^natIn]In-GAS2 analogs were conducted against the [^125I][I-Tyr^12,Leu^15]gastrin-17 radioligand in membrane homogenates harvested from HEK293-CCK2i4svR cells, as previously described. Briefly, each of the above analogs, or unmodified Z360 serving as control, was incubated in triplicates of increasing concentrations (10^−13–10^−6 M) with [^125I][I-Tyr^12,Leu^15]gastrin-17 (50 pM, ≈40,000 cpm) and membrane homogenate in binding buffer (300 µL, pH 7.4, 50 mM HEPES, 1% BSA, 5.5 mM MgCl2, 35 µM bacitracin) for 1 h at 22 °C. Incubation was interrupted by rapid filtration through glass fiber filters (Whatman GF/B, presoaked in binding buffer for at least 1 h) on a Brandel Cell Harvester (Adi Hassel Ingenieur Büro, Munich, Germany) and subsequent rinsing with ice-cold washing buffer (10 mM HEPES pH 7.4, 150 mM NaCl). The radioactivity content of individual filters was measured in a gamma counter (automated multi-sample well-type instrument with a NaI(Tl) 3′ crystal, Canberra Packard Cobra^TM Quantum U5003/1, Auto-Gamma® counting system). The 50% inhibitory concentration (IC50) was determined by nonlinear regression analysis according to a one-site model using PRISM 6 (Graph Pad Software, San Diego, CA, USA). Values are expressed as mean ± standard deviation (SD) of three independent experiments performed in triplicate.

The target of assay [3] is T1, human CCK2R. Briefly: FRET-based Ca2+ mobilization assay in HEK293-hCCK2R/YC3.60 cells. The class given is cell-based. How it is done:
For most biological experiments, HEK293 cells transfected to stably express the human CCK2i4svR splice variant were used, kindly provided by Dr. P. Laverman (Radboud University Nijmegen Medical Center, Nijmegen, The Netherlands) and Prof. M. R. Hellmich (University of Texas Medical Branch, Galveston, TX, USA), while non-transfected wtHEK293 cells served as negative controls. Cells were cultured in DMEM with GlutaMAX-I supplemented with 10% (v/v) fetal bovine serum (FBS), 100 U/mL penicillin and 100 μg/mL streptomycin and kept in a controlled humidified air containing 5% CO2 at 37 °C; the medium for transfected cells was additionally supplemented with 400 μg/mL G418. All culture media were purchased from Gibco BRL, Life Technologies (Grand Island, NY, USA) and supplements were supplied by Biochrom KG Seromed (Berlin, Germany). For Ca^2+-mobilization assays, HEK293 cell clones (generated by O.G. Chepurny in the G.G. Holz laboratory) were transfected to stably co-express either both the human CCK2R and the Ca^2+ biosensor YC3.60 (clone #21) or only YC3.60 (clone #5, negative controls devoid of CCK2R expression) (Supplementary File). Ca^2+ mobilization assays were conducted by FRET-based detection of Ca^2+ in HEK293-hCCK2R/YC3.60 and HEK293-YC3.60 cells (negative controls) for GAS1/2/3 as well as for DG2, [Leu^15]gastrin-17 and Z360 (controls), as outlined in the Supplementary File. […]
Table S2. Analytical HPLC Data for (Radio)Metal-Tagged GAS1/2/3 (tR (min) gamma/UV trace). compound - [67Ga]Ga/[natGa]Ga [111In]In/[natIn]In [177Lu]Lu/[natLu]Lu […]
Purity as determined by HPLC exceeded 97% in all cases. system 1 was applied: RP-HPLC with twin UV detection at 220 nm and gamma detection; a Symmetry Shield RP18 column (5 μm, 3.9 mm × 150 mm) was eluted at a flow rate of 1 mL/min with linear gradient: 100%A/0% B to 70%A/30% B in 5 min and then 70%A/30% B to 55%A/45% B in 60 min, with A = 0.1% TFA in H2O (v/v) and B = MeCN.
Preparation of [natGa]Ga-GAS1/2/3, [natIn]In-GAS1/2/3 and [natLu]Lu-GAS1/3 To an Eppendorf Protein LoBind® centrifuge tube containing GAS1/2/3 precursor stock solution (60 μL, 120 μg, ≈60 nmol), a stock solution (60 μL, 2 mM, 120 nmol) of the respective nitrate salt dissolved in 1 M sodium acetate buffer of pH 4.0 (for gallium), 4.6 (for indium) and 5.0 (for lutetium) was added. The mixture was heated at 75 °C for 1 h. […]
action mixture using HPLC system 1, allowing for base line separation of metal-tagged from metal-free GAS1/2/3. Retention times (UV trace, tR in min) of all GAS species were included in Table S2. The metal-tagged GAS solutions were used as such in in vitro com-petition binding assays assuming a 0.5 mM CCK2R-ligand concentration.
Methods for FRET-based detection of Ca2+ in HEK293 cells were descri bed previ ousl y. The clone #21 HEK293 cell line (HEK293-hCCK2R/YC3.60) stably co-expressing the human CCK2R and the Ca2+ biosensor YC3.60 was generated a ccording to published methods. The clone #5 HEK293 cell line (HEK293-YC3.60) that expressed only YC3.60 served as a negative control and was generated in a similar matter. […] The human CCK2R (NM_176875) in pCMV6-Entry vector contained the receptor’s complete open reading frame with a Myc-DDK epitope tag (OriGene Technologies; Cat. No. R200676). Test compounds included human [Leu15]-gastrin- […]
For orientation: A change in cytosolic calcium serves as a functional read-out for many receptors and channels.

Assay [4] relates to HEK293-YC3.60 cells. Kind of assay: FRET-based Ca2+ mobilization assay in HEK293-YC3.60 cells (negative controls devoid of CCK2R). Type of assay: cell-based, human. The settings on record: HEK293-YC3.60 clone #5. How it is done: For most biological experiments, HEK293 cells transfected to stably express the human CCK2i4svR splice variant were used, kindly provided by Dr. P. Laverman (Radboud University Nijmegen Medical Center, Nijmegen, The Netherlands) and Prof. M. R. Hellmich (University of Texas Medical Branch, Galveston, TX, USA), while non-transfected wtHEK293 cells served as negative controls. Cells were cultured in DMEM with GlutaMAX-I supplemented with 10% (v/v) fetal bovine serum (FBS), 100 U/mL penicillin and 100 μg/mL streptomycin and kept in a controlled humidified air containing 5% CO2 at 37 °C; the medium for transfected cells was additionally supplemented with 400 μg/mL G418. […]
Purity as determined by HPLC exceeded 97% in all cases. system 1 was applied: RP-HPLC with twin UV detection at 220 nm and gamma detection; a Symmetry Shield RP18 column (5 μm, 3.9 mm × 150 mm) was eluted at a flow rate of 1 mL/min with linear gradient: 100%A/0% B to 70%A/30% B in 5 min and then 70%A/30% B to 55%A/45% B in 60 min, with A = 0.1% TFA in H2O (v/v) and B = MeCN. […]
Methods for FRET-based detection of Ca2+ in HEK293 cells were descri bed previ ousl y. […] The human CCK2R (NM_176875) in pCMV6-Entry vector contained the receptor’s complete open reading frame with a Myc-DDK epitope tag (OriGene Technologies; Cat. No. R200676). […]

Turning to `CC(C)(C)C(=O)CN1C(=O)[C@H](NC(=O)Nc2cccc(C(=O)NCCOCCOCCOCCC(=O)N[C@H](CCC(=O)O)C(=O)N[C@H](CCC(=O)O)C(=O)N[C@H](CCC(=O)O)C(=O)N[C@H](CCC(=O)O)C(=O)N[C@@H](CCCCNC(=O)C(CNCCN)CNCCN)C(=O)O)c2)CN(C2CCCCC2)c2ccccc21` [DGA1, Z360-PEG3-DGlu-DGlu-DGlu-DGu-Lys(N4)−OH] ({X1-CO-3Abz-PEG3}-[dE][dE][dE][dE]K(X2)-OH), the “Functional profile at the CCK2R” value in assay [1] is listed as “pure antagonist profile”.

For the molecule `CC(C)(C)C(=O)CN1C(=O)[C@H](NC(=O)Nc2cccc(C(=O)NCCOCCOCCOCCNC(=O)[C@H](CCC(=O)O)NC(=O)CN3CCN(CC(=O)O)CCN(CC(=O)O)CCN(CC(=O)O)CC3)c2)CN(C2CCCCC2)c2ccccc21` [GAS1, DOTA-DGlu-HN(PEG3)NH-Z360], the IC50 in assay [2] turned out to be 5.9 ± 1.8 nM. For the same molecule, in assay [3], the “Concentration threshold for agonistic properties (Ca2+ mobilization)” value (from here on “Concentration threshold”) is more than 100 nM.

In turn, `CC(C)(C)C(=O)CN1C(=O)[C@H](NC(=O)Nc2cccc(C(=O)NCCOCCOCCOCCNC(=O)[C@H](CCC(=O)O)NC(=O)CCC(C(=O)O)N3CCN(CC(=O)O)CCN(CC(=O)O)CC3)c2)CN(C2CCCCC2)c2ccccc21` (some centres unmarked) [GAS2, NODAGA-DGlu-HN(PEG3)NH-Z360] had an IC50 in assay [2] of 4.1 ± 1.1 nM. In addition, in assay [3], the “Concentration threshold” value is more than 100 nM.

As to `CC(C)C[C@H](NC(=O)[C@H](Cc1c[nH]c2ccccc12)NC(=O)CNC(=O)[C@H](Cc1ccc(O)cc1)NC(=O)[C@H](C)NC(=O)[C@H](CCC(=O)O)NC(=O)[C@H](CCC(=O)O)NC(=O)[C@H](CCC(=O)O)NC(=O)[C@H](CCC(=O)O)NC(=O)[C@H](CCC(=O)O)NC(=O)[C@H](CC(C)C)NC(=O)[C@H](Cc1c[nH]c2ccccc12)NC(=O)[C@@H]1CCCN1C(=O)CNC(=O)[C@@H]1CCC(=O)N1)C(=O)N[C@@H](CC(=O)O)C(=O)N[C@@H](Cc1ccccc1)C(N)=O` [[Leu^15]gastrin-17, pGlu-Gly-Pro-Trp-Leu-(Glu)5-Ala-Tyr-Gly-Trp-Leu-Asp-Phe-NH2, reference compound] ([pGlu]GPWLEEEEEAYGWLDF-NH2), the “Ca2+ response in cells devoid of CCK2R expression” value in assay [4] is “failed to respond”. Also, the “Concentration at which the CCK2R is activated (Ca2+ mobilization)” value in assay [3] amounted to 100 pM.

Consider `CC(C)(C)C(=O)CN1C(=O)[C@H](NC(=O)Nc2cccc(C(=O)NCCOCCOCCOCCNC(=O)[C@H](CCC(=O)O)NC(=O)CCC(C(=O)O)N3CCN(CC(=O)O)CCN(CC(=O)O)CCN(CC(=O)O)CC3)c2)CN(C2CCCCC2)c2ccccc21` (some centres unmarked) [GAS3, DOTAGA-DGlu-HN(PEG3)NH-Z360], for which, in assay [2], the IC50 is 3.1 ± 1.5 nM. The “Concentration threshold” value in assay [3] was more than 100 nM.

In turn, `CC(C)(C)C(=O)CN1C(=O)C(NC(=O)Nc2cccc(C(=O)O)c2)CN(C2CCCCC2)c2ccccc21` (centres unmarked) [Z360] had an IC50 in assay [2] of 1.2 ± 0.5 nM. Also, the “Concentration threshold” value in assay [3] was more than 100 nM.

These data come from PMC8954547, “Nonpeptidic Z360-Analogs Tagged with Trivalent Radiometals as Anti-CCK2R Cancer Theranostic Agents: A Preclinical Study” (Pharmaceutics, 2022).
